According to US10442804B2, “Compounds for the treatment of hepatitis B virus infection” (Gilead Sciences, Inc., priority 2017, dated 2019):
Like-named read-outs stand apart in the source and are kept apart here.

Key:
[1] = In vitro metabolic stability, hepatocyte stability (cynomolgus monkey); format: in vitro ADME; settings: Cyno hepatocytes, read-out: hepatocyte stability T1/2 (converted)
Method: (§1) Biological Example 3: In Vitro Metabolic Stability
(§2) For hepatocyte stability incubations, cells were obtained from BioreclamationIVT (Baltimore, Md.), thawed according to the manufacturer's directions, and resuspended to a final concentration of 1×10^6 cells/mL in Krebs-Henseleit buffer prewarmed to 37° C. The total cell count and the proportion of viable cells were determined by Trypan Blue dye exclusion using a hemocytometer. The final concentration of test compounds and positive controls was 2 μM. Incubations were carried out in duplicate wells of a 24-well plate out with gentle shaking at 37° C. under a humid atmosphere of 95% air/5% CO2 (v/v). Aliquots (50 μL) were removed after 0, 1, 3, and 6 hours and added to 100 μL quenching solution. Samples were then processed and analyzed in a manner similar to the microsomal stability samples.
(§3) Quantification of test compounds and positive controls were performed using analyte/internal standard peak area ratios (PAR) measured on a Q-Exactive mass spectrometer (Thermo Scientific, San Jose, Calif.) coupled to an Aria Transcend LX-4 multiplex UHPLC system (Thermo Scientific, San Jose, Calif.). […] Half-lives of compounds in the incubations were calculated from extracted data using GMSU/QuickCalc (Gubbs, Inc.) and data are summarized in the following Table 2.

[2] = In vitro metabolic stability, hepatocyte stability (dog); format: in vitro ADME; settings: Dog hepatocytes, read-out: hepatocyte stability T1/2 (converted)
Method: as §1, §2, §3

[3] = In vitro metabolic stability, hepatocyte stability (rat); format: in vitro ADME; settings: Rat hepatocytes, read-out: hepatocyte stability T1/2 (converted)
Method: as §1, §2, §3

[4] = In vitro metabolic stability, hepatocyte stability (human); format: in vitro ADME; settings: Human hepatocytes, read-out: hepatocyte stability T1/2 (converted)
Method: as §1, §2, §3

MT-4 cytotoxicity assay = format: cell-based, human; settings: human, five days, Cell Titer Glo luminescence; read-out: MT-4 CC50
[5] = test system: HBV-infected NTCP-HepG2 cells, secreted HBsAg; experiment: microbe, parasite or virus in culture; format: cell-based, hepatitis B virus (genotype D, AD38-derived); settings: secreted HBsAg in supernatant after 5 days, geometric mean of minimum four determinations, read-out: NTCP HBsAg EC50
In short: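 NTCP-HepG2 cells were infected with genotype D HBV at 4000 genome equivalents/cell, then seeded 4 days post-infection with serially diluted compounds (1% DMSO) for 5 days. Supernatant HBsAg was measured by chemiluminescent MSD immunoassay. EC50 from four-parameter fit, geometric mean of ≥4 determinations.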

[6] = test system: MT-4 cell line (HTLV-1 transformed, human T lymphoblastoid cells); experiment: MT-4 cytotoxicity assay; format: cell-based; settings: five days, Cell Titer Glo luminescence

| Compound | half-life at 2 μM [1] [h] | half-life at 2 μM [2] [h] | half-life at 2 μM [3] [h] | half-life at 2 μM [4] [h] | CC50 at 5 days (MT-4 cytotoxicity assay) [nM] | EC50 ([5]; Hepatitis B virus, 120 h) [nM] | CC50 [6] [nM] | EC50 [5] [nM] |
| --- | --- | --- | --- | --- | --- | --- | --- | --- |
| COCCCOc1cc2c(cc1Cl)-c1cc(=O)c(C(=O)O)cn1[C@H]1[C@@H]2CCC1(C)C (single isomer, unassigned) [Example 33] | 5.6 | 5.7 | 1.6 | 21.6 | 7900 | 1.8 |  |  |
| COCCCOc1cc2c(cc1Cl)-c1cc(=O)c(C(=O)O)cn1N1[C@@H]2CCC1(C)C (single isomer, unassigned) [Example 5] | 20.8 | > 39.5 | > 39.5 | > 39.5 | > 10000 | 1.7 |  |  |
| COCCCOc1cc2c(cc1Cl)-c1cc(=O)c(C(=O)O)cn1[C@H]1[C@@H]2CCC1(C)C (racemic) [Example 32, cis-10-chloro-11-(3-methoxypropoxy)-3,3-dimethyl-7-oxo-1,2,3,3a,7,12b-hexahydrocyclopenta[c]pyrido[2,1-a]isoquinoline-6-carboxylic acid] |  |  |  |  |  |  | 6000 | 120 |
